Source: patent US8329645B2, “Polymyxin derivatives and uses thereof” (priority 2008, dated 2012)

Columns and labels:
Ac. baumannii ATCC19606 = assay: E-test MIC with or without NAB7061 (4 μg/ml), Mueller-Hinton agar; assay type: cell-based, Acinetobacter baumannii; conditions: Ac. baumannii ATCC19606
Procedure: (§1) MICs were determined by using E-strips (Biodisk Ltd., Solna, Sweden) according to the manufacturer's instructions.
(§2) The strains originated from ATCC (11 strains), CCUG (11 strains), and NCTC (The National Collection of Type Cultures, Colindale, U.K.; 2 strains). Eight strains (the F-strains) were purchased from Mobidiag Ltd., Helsinki, Finland.

Ac. baumannii F263 = assay: as above; assay type: cell-based, Acinetobacter baumannii; conditions: Ac. baumannii F263
Procedure: as §1, §2

Ac. baumannii F264 = assay: as above; assay type: cell-based, Acinetobacter baumannii; conditions: Ac. baumannii F264
Procedure: as §1, §2

K. pneumoniae CCUG45421 = assay: as above; assay type: cell-based, Klebsiella pneumoniae
Procedure: as §1, §2

K. pneumoniae F144 = assay: as above; assay type: cell-based, Klebsiella pneumoniae
Procedure: as §1, §2

K. pneumoniae F136 = assay: as above; assay type: cell-based, Klebsiella pneumoniae
Procedure: as §1, §2

K. pneumoniae F145 = assay: as above; assay type: cell-based, Klebsiella pneumoniae
Procedure: as §1, §2

[1] = tested on: three strains of A. baumannii; assay: E-test sensitization by NAB7061, summary over strains; assay type: cell-based; conditions: Acinetobacter baumannii, read-out: resulting MIC values in the presence of NAB7061 (4 μg/ml)
Description: as §2

A. baumannii ATCC19606 = assay: E-test MIC of antibiotics on Mueller Hinton agar containing increasing concentrations of NAB739; assay type: cell-based, Acinetobacter baumannii
K. pneumoniae ATCC13883 = conditions: K. pneumoniae ATCC13883
Summary of the method: (§3)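 Gradient-strip (E-strip) method, performed per manufacturer's protocol; MIC read where growth inhibition met the strip.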

E. coli ATCC25922 = conditions: E. coli ATCC25922
Summary of the method: as §3

K. oxytoca CCUG51683 = assay: E-test MIC with or without NAB7061 (4 μg/ml), Mueller-Hinton agar; assay type: cell-based, Klebsiella oxytoca
Procedure: as §1, §2

K. oxytoca ATCC13182 = assay: as above; assay type: cell-based, Klebsiella oxytoca
Procedure: as §1, §2

P. aeruginosa ATCC 27853 = assay: E-test MIC of antibiotics on Mueller Hinton agar containing increasing concentrations of NAB739; assay type: cell-based, Pseudomonas aeruginosa
P. mirabilis ATCC29906 = assay: E-test MIC with or without NAB7061 (4 μg/ml), Mueller-Hinton agar; assay type: cell-based, Proteus mirabilis
Procedure: as §1, §2

A. baumannii F264 = assay: E-test MIC of antibiotics on Mueller Hinton agar containing increasing concentrations of NAB739; assay type: cell-based, Acinetobacter baumannii
C. freundii ATCC8090 = assay: E-test MIC with or without NAB7061 (4 μg/ml), Mueller-Hinton agar; assay type: cell-based, Citrobacter freundii
Procedure: as §1, §2

S. marcescens ATCC8100 = assay: as above; assay type: cell-based, Serratia marcescens
Procedure: as §1, §2

E. coli NCTC13353 = assay: as above; assay type: cell-based, Escherichia coli
Summary of the method: as §3

E. coli CCUG41429 = assay: as above; assay type: cell-based, Escherichia coli
Summary of the method: as §3

E. coli CCUG41432 = assay: as above; assay type: cell-based, Escherichia coli
Summary of the method: as §3

E. coli CCUG41425 = assay: as above; assay type: cell-based, Escherichia coli
Summary of the method: as §3

E. coli CCUG41422 = assay: as above; assay type: cell-based, Escherichia coli
Summary of the method: as §3

E. coli NCTC13351 = assay: as above; assay type: cell-based, Escherichia coli
Summary of the method: as §3

E. coli CCUG41424 = assay: as above; assay type: cell-based, Escherichia coli
Summary of the method: as §3

E. coli IH3080 [2] = assay: as above; assay type: cell-based, Escherichia coli
Summary of the method: as §3

E. coli CCUG41427 = assay: as above; assay type: cell-based, Escherichia coli
Summary of the method: as §3

E. coli CCUG41421 = assay: as above; assay type: cell-based, Escherichia coli
Summary of the method: as §3

P. aeruginosa ATCC27853 = assay: as above; assay type: cell-based, Pseudomonas aeruginosa
Procedure: as §1, §2

P. aeruginosa CCUG51971 = assay: as above; assay type: cell-based, Pseudomonas aeruginosa
Procedure: as §1, §2

S. maltophilia ATCC17444 = assay: as above; assay type: cell-based
Procedure: as §1, §2

P. vulgaris ATCC13315 = assay: as above; assay type: cell-based
Procedure: as §1, §2

E. cloacae ATCC23355 = assay: as above; assay type: cell-based, Enterobacter cloacae
Summary of the method: as §3

E. cloacae F230 = assay: as above; assay type: cell-based, Enterobacter cloacae
Summary of the method: as §3

E. cloacae F232 = assay: as above; assay type: cell-based, Enterobacter cloacae
Summary of the method: as §3

E. cloacae CCUG52947 = assay: as above; assay type: cell-based, Enterobacter cloacae
Summary of the method: as §3

[3] = tested on: Ps. aeruginosa ATCC 27853; assay: Sensitization to rifampin: growth inhibition around wells on LB plates containing rifampin; assay type: cell-based, Pseudomonas aeruginosa; conditions: 4 μg
[4] = tested on: Pseudomonas aeruginosa ATCC 27853; assay: Growth inhibition around wells on LB agar plates; assay type: cell-based; conditions: Ps. aeruginosa ATCC 27853
Summary of the method: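 Activity against Pseudomonas aeruginosa ATCC 27853 was assessed by agar well diffusion on LB plates. A suspension of about 10^8 cells/ml in 0.9% NaCl was spread over the agar and the excess removed. Once the surface had dried, 2 mm wells were drilled and filled with peptide dissolved in 0.9% NaCl. Plates were incubated 18 h at 37° C, and inhibition zone diameters were converted to areas in square mm.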

E. coli IH3080 [5] = assay: Sensitization to rifampin: growth inhibition around wells on LB plates containing rifampin; assay type: cell-based, Escherichia coli; conditions: 4 μg of compound
E. coli = conditions: Sakura et al. (2004); cited from earlier work
E. coli IH3080 [6] = assay: Growth inhibition around wells on LB agar plates; assay type: cell-based, Escherichia coli
Summary of the method: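 Growth inhibition of encapsulated E. coli IH3080 (K1:O018) was assessed on LB agar plates. A suspension of about 10^8 cells/ml in 0.9% NaCl, made from an overnight LB agar culture, was spread across the plate surface and the excess removed. After drying, 2 mm wells were drilled, with 0.9% NaCl as control. Following 18 h at 37° C., inhibition zone diameters around wells were converted to areas in square mm.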

Molecule: CC[C@H]1OC(=O)[C@H](C)[C@@H](O[C@H]2C[C@@](C)(OC)[C@@H](O)[C@H](C)O2)[C@H](C)[C@@H](O[C@@H]2O[C@H](C)C[C@H](N(C)C)[C@H]2O)[C@](C)(OC)C[C@@H](C)C(=O)[C@H](C)[C@@H](O)[C@]1(C)O [Clarithromycin]
- MIC of antibiotic in the presence of 4 μg/ml of NAB 7061 (Ac. baumannii ATCC19606): 0.5 µg/mL
- MIC of antibiotic in the presence of 4 μg/ml of NAB 7061 (Ac. baumannii F263): 0.38 µg/mL
- MIC of antibiotic in the presence of 4 μg/ml of NAB 7061 (Ac. baumannii F264): 0.25 µg/mL
- MIC of antibiotic in the presence of 4 μg/ml of NAB 7061 (K. pneumoniae CCUG45421): 24 µg/mL
- MIC of antibiotic in the presence of 4 μg/ml of NAB 7061 (K. pneumoniae F144): 0.75 µg/mL
- MIC of antibiotic in the presence of 4 μg/ml of NAB 7061 (K. pneumoniae F136): 2 µg/mL
- MIC of antibiotic in the presence of 4 μg/ml of NAB 7061 (K. pneumoniae F145): 0.25 µg/mL
- MIC [1]: ≤ 0.5 µg/mL
- MIC of antibiotic in the presence of NAB739 (A. baumannii ATCC19606; NAB 739 0 μg/ml): 8 µg/mL
- MIC of antibiotic in the presence of NAB739 (A. baumannii ATCC19606; NAB 739 0.5 μg/ml): 0.5 µg/mL
- MIC of antibiotic in the presence of NAB739 (A. baumannii ATCC19606; NAB 739 1 μg/ml): 0.094 µg/mL
- MIC of antibiotic in the presence of 4 μg/ml of NAB 7061 (K. pneumoniae ATCC13883): 0.19 µg/mL
- MIC of antibiotic in the presence of 4 μg/ml of NAB 7061 (E. coli ATCC25922): 0.094 to 0.125 µg/mL
- MIC of antibiotic in the presence of 4 μg/ml of NAB 7061 (K. oxytoca CCUG51683): 0.19 µg/mL
- MIC of antibiotic in the presence of 4 μg/ml of NAB 7061 (K. oxytoca ATCC13182): 0.25 µg/mL
- MIC of antibiotic in the presence of NAB739 (P. aeruginosa ATCC 27853; NAB 739 0 μg/ml): 48 µg/mL
- MIC of antibiotic in the presence of NAB739 (P. aeruginosa ATCC 27853; NAB 739 0.5 μg/ml): 16 µg/mL
- MIC of antibiotic in the presence of NAB739 (P. aeruginosa ATCC 27853; NAB 739 1 μg/ml): 12 µg/mL
- MIC of antibiotic in the presence of NAB739 (P. aeruginosa ATCC 27853; NAB 739 2 μg/ml): 3 µg/mL
- MIC of antibiotic in the presence of NAB739 (P. aeruginosa ATCC 27853; NAB 739 […]): 32 µg/mL
- MIC of antibiotic in the presence of 4 μg/ml of NAB 7061 (P. mirabilis ATCC29906): 24 µg/mL
- MIC of antibiotic in the presence of NAB739 (A. baumannii F264; NAB 739 0 μg/ml): 6 µg/mL
- MIC of antibiotic in the presence of NAB739 (A. baumannii F264; NAB 739 0.5 μg/ml): 0.5 µg/mL
- MIC of antibiotic in the presence of NAB739 (A. baumannii F264; NAB 739 1 μg/ml): 0.125 µg/mL
- MIC of antibiotic in the presence of 4 μg/ml of NAB 7061 (C. freundii ATCC8090): 0.125 µg/mL
- MIC of antibiotic in the presence of 4 μg/ml of NAB 7061 (S. marcescens ATCC8100): 96 µg/mL
- MIC of antibiotic in the presence of 4 μg/ml of NAB 7061 (E. coli NCTC13353): 1 µg/mL
- MIC of antibiotic in the presence of 4 μg/ml of NAB 7061 (E. coli CCUG41429): 0.064 µg/mL
- MIC of antibiotic in the presence of 4 μg/ml of NAB 7061 (E. coli CCUG41432): 0.064 µg/mL
- MIC of antibiotic in the presence of 4 μg/ml of NAB 7061 (E. coli CCUG41425): 0.047 µg/mL
- MIC of antibiotic in the presence of 4 μg/ml of NAB 7061 (E. coli CCUG41422): 0.25 µg/mL
- MIC of antibiotic in the presence of 4 μg/ml of NAB 7061 (E. coli NCTC13351): 0.032 µg/mL
- MIC of antibiotic in the presence of 4 μg/ml of NAB 7061 (E. coli CCUG41424): 0.125 µg/mL
- MIC of antibiotic in the presence of 4 μg/ml of NAB 7061 (E. coli IH3080 [2]): 0.047 to 0.064 µg/mL
- MIC of antibiotic in the presence of 4 μg/ml of NAB 7061 (E. coli CCUG41427): 0.064 µg/mL
- MIC of antibiotic in the presence of 4 μg/ml of NAB 7061 (E. coli CCUG41421): 0.125 µg/mL
- MIC of antibiotic in the presence of 4 μg/ml of NAB 7061 (P. aeruginosa ATCC27853): 32 µg/mL
- MIC of antibiotic in the presence of 4 μg/ml of NAB 7061 (P. aeruginosa CCUG51971): 64 µg/mL
- MIC of antibiotic in the presence of 4 μg/ml of NAB 7061 (S. maltophilia ATCC17444): 64 µg/mL
- MIC of antibiotic in the presence of 4 μg/ml of NAB 7061 (P. vulgaris ATCC13315): 24 µg/mL
- MIC of antibiotic in the presence of 4 μg/ml of NAB 7061 (E. cloacae ATCC23355): 0.25 to 0.75 µg/mL
- MIC of antibiotic in the presence of 4 μg/ml of NAB 7061 (E. cloacae F230): 0.047 µg/mL
- MIC of antibiotic in the presence of 4 μg/ml of NAB 7061 (E. cloacae F232): 0.094 µg/mL
- MIC of antibiotic in the presence of 4 μg/ml of NAB 7061 (E. cloacae CCUG52947): 0.38 µg/mL

Molecule: octanoyl polymyxin B heptapeptide [Octanoyl PMBH, reference compound]
- growth inhibition around a well in the presence of rifampin ([3]; rifampin 0 μg/ml): 0 square millimeters
- growth inhibition around a well in the presence of rifampin ([3]; rifampin 0.1 μg/ml): 13 square millimeters
- growth inhibition around a well in the presence of rifampin ([3]; rifampin 0.3 μg/ml): 13 square millimeters
- growth inhibition around a well ([4]; 4 μg): 0 square millimeters
- growth inhibition around a well ([4]; 10 μg): 13 square millimeters
- growth inhibition around a well in the presence of rifampin (E. coli IH3080 [5]; rifampin 0 μg/ml): 0 square millimeters
- growth inhibition around a well in the presence of rifampin (E. coli IH3080 [5]; rifampin 0.1 μg/ml): 0 square millimeters
- growth inhibition around a well in the presence of rifampin (E. coli IH3080 [5]; rifampin 1.0 μg/ml): 38 square millimeters
- concentration needed to inhibit the growth of bacteria (E. coli): 128 µg/mL
- growth inhibition around a well (E. coli IH3080 [6]; 4 μg of compound per well): 0 square millimeters
- growth inhibition around a well (E. coli IH3080 [6]; 10 μg of compound per well): 0 square millimeters
